Measured values from patent publication US20230295182A1, “SPIRO DERIVATIVES OF ALPHA-D-GALACTOPYRANOSIDES” (Idorsia Pharmaceuticals Ltd, priority 2020, published 2023).

Columns and labels:
human Gal-1 (hGal-1) = human Gal-1 (hGal-1) (Homo sapiens, UniProt P09382); assay: Competitive binding assay: biotinylated hGal-1 to microplate-adsorbed asialofetuin (ASF); details: Activities on hGal-1; binding to ASF-coated plates, 3 hours at 4° C.; mean values; read-out: Gal-1 IC50
Procedure, shortened: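 Plate-adsorbed asialofetuin is incubated 3 h at 4 °C with biotinylated hGal-1, optionally its all-serine-substituted cysteine variant, plus compound dilutions. ABTS color after 1 h streptavidin-peroxidase (80 ng/mL) at 4 °C reports binding. Reported IC50 is a mean across repeat runs.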

human Gal-3 (hGal-3) = human Gal-3 (hGal-3) (Homo sapiens (Human), UniProt P17931); assay: Competitive binding assay: biotinylated hGal-3 to microplate-adsorbed asialofetuin (ASF); details: Activity on hGal-3; binding to ASF-coated plates, 3 hours at 4° C.; mean values
human Gal-3 (hGal-3), sequence (P17931 whole entry): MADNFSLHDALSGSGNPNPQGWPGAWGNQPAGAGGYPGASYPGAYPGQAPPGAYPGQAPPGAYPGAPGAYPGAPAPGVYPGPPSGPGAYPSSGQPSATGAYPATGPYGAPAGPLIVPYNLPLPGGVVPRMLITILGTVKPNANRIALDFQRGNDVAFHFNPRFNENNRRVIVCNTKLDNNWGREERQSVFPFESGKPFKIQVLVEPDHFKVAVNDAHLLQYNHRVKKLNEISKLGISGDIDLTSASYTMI
Procedure, shortened: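 Biotinylated hGal-3 (300-1000 ng/mL) binding to plate-adsorbed asialofetuin, with DMSO-diluted compound added, incubated 3 h at 4 °C. After washing, bound protein detected with streptavidin-peroxidase (80 ng/mL, 1 h, 4 °C) and ABTS substrate, read spectrophotometrically. IC50 given as mean of several measurements.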

human Gal-1 (hGal-1), sequence (P09382 2-135 limits assumed): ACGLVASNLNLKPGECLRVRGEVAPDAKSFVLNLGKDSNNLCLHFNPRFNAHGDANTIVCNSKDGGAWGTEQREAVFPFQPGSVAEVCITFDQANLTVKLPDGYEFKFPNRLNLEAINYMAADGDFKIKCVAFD

| Compound | IC50 (human Gal-1 (hGal-1)) | IC50 (human Gal-3 (hGal-3)) |
| --- | --- | --- |
| CO[C@@H]1[C@@H](n2cc(-c3ccc(F)c(F)c3F)nn2)[C@@H](O)[C@@H](CO)O[C@@H]1CC1=NO[C@]2(CC[C@@H](C#N)CC2)C1 [Example 1.58, (5s,8S)-3-(((2R,3R,4S,5R,6R)-5-hydroxy-6-(hydroxymethyl)-3-methoxy-4-(4-(2,3,4-trifluorophenyl)-1H-1,2,3-triazol-1-yl)tetrahydro-2H-pyran-2-yl)methyl)-1-oxa-2-azaspiro[4.5]dec-2-ene-8-carbonitrile] | 640 nM | 110 nM |
| CO[C@@H]1[C@@H](n2cc(-c3ccc(Cl)c(F)c3F)nn2)[C@@H](O)[C@@H](CO)O[C@@H]1CC1=NOC2(CCC(C#N)CC2)C1 (stereo partly drawn) [Example 1.49, 3-(((2R,3R,4S,5R,6R)-4-(4-(4-chloro-2,3-difluorophenyl)-1H-1,2,3-triazol-1-yl)-5-hydroxy-6-(hydroxymethyl)-3-methoxytetrahydro-2H-pyran-2-yl)methyl)-1-oxa-2-azaspiro[4.5]dec-2-ene-8-carbonitrile] | 1200 nM | 110 nM |
| CO[C@@H]1[C@@H](n2cc(-c3ccc(Cl)c(F)c3F)nn2)[C@@H](O)[C@@H](CO)O[C@@H]1CC1=NOC2(C1)CN(C(=O)OC(C)(C)C)C2 [Example 1.80, tert-butyl 7-(((2R,3R,4S,5R,6R)-4-(4-(4-chloro-2,3-difluorophenyl)-1H-1,2,3-triazol-1-yl)-5-hydroxy-6-(hydroxymethyl)-3-methoxytetrahydro-2H-pyran-2-yl)methyl)-5-oxa-2,6-diazaspiro[3.4]oct-6-ene-2-carboxylate] | 7200 nM | 310 nM |
| CO[C@@H]1[C@@H](n2cc(-c3ccc(Cl)c(F)c3F)nn2)[C@@H](O)[C@@H](CO)O[C@@H]1CC1=NOC2(CCOCC2)C1 [Example 1.37, (2R,3R,4S,5R,6R)-6-((1,8-dioxa-2-azaspiro[4.5]dec-2-en-3-yl)methyl)-4-(4-(4-chloro-2,3-difluorophenyl)-1H-1,2,3-triazol-1-yl)-2-(hydroxymethyl)-5-methoxytetrahydro-2H-pyran-3-ol] | 4600 nM | 120 nM |
| CO[C@@H]1[C@@H](n2cc(-c3ccc(C)c(F)c3F)nn2)[C@@H](O)[C@@H](CO)O[C@@H]1CC1=NO[C@]2(CC[C@H](C#N)CC2)C1 [Example 1.57, (5r,8R)-3-(((2R,3R,4S,5R,6R)-4-(4-(2,3-difluoro-4-methylphenyl)-1H-1,2,3-triazol-1-yl)-5-hydroxy-6-(hydroxymethyl)-3-methoxytetrahydro-2H-pyran-2-yl)methyl)-1-oxa-2-azaspiro[4.5]dec-2-ene-8-carbonitrile] | 530 nM | 41 nM |
| CO[C@@H]1[C@@H](n2cc(-c3cc(F)c(F)c(F)c3)nn2)[C@@H](O)[C@@H](CO)O[C@@H]1CC1=NOC2(CCOCC2)C1 [Example 1.23, (2R,3R,4S,5R,6R)-6-((1,8-dioxa-2-azaspiro[4.5]dec-2-en-3-yl)methyl)-2-(hydroxymethyl)-5-methoxy-4-(4-(3,4,5-trifluorophenyl)-1H-1,2,3-triazol-1-yl)tetrahydro-2H-pyran-3-ol] | 3500 nM | 760 nM |
| CO[C@@H]1[C@@H](n2cc(-c3cc(F)c(F)c(F)c3)nn2)[C@@H](O)[C@@H](CO)O[C@@H]1CC1=NO[C@]2(CC[C@@H](NC(=O)OC(C)(C)C)CC2)C1 [Example 1.16, tert-butyl ((5s,8S)-3-(((2R,3R,4S,5R,6R)-5-hydroxy-6-(hydroxymethyl)-3-methoxy-4-(4-(3,4,5-trifluorophenyl)-1H-1,2,3-triazol-1-yl)tetrahydro-2H-pyran-2-yl)methyl)-1-oxa-2-azaspiro[4.5]dec-2-en-8-yl)carbamate] | 2300 nM | 340 nM |
| CO[C@@H]1[C@@H](n2cc(-c3cc(F)c(C)cc3F)nn2)[C@@H](O)[C@@H](CO)O[C@@H]1CC1=NOC2(CCCCC2)C1 [Example 1.47, (2R,3R,4S,5R,6R)-6-((1-oxa-2-azaspiro[4.5]dec-2-en-3-yl)methyl)-4-(4-(2,5-difluoro-4-methylphenyl)-1H-1,2,3-triazol-1-yl)-2-(hydroxymethyl)-5-methoxytetrahydro-2H-pyran-3-ol] | 2200 nM | 430 nM |
| CO[C@@H]1[C@@H](n2cc(-c3ccc(Cl)c(F)c3F)nn2)[C@@H](O)[C@@H](CO)O[C@@H]1CC1=NO[C@]2(CC[C@@H](NC(=O)OC(C)(C)C)CC2)C1 [Example 1.46, tert-butyl ((5s,8S)-3-(((2R,3R,4S,5R,6R)-4-(4-(4-chloro-2,3-difluorophenyl)-1H-1,2,3-triazol-1-yl)-5-hydroxy-6-(hydroxymethyl)-3-methoxytetrahydro-2H-pyran-2-yl)methyl)-1-oxa-2-azaspiro[4.5]dec-2-en-8-yl)carbamate] | 1800 nM | 60 nM |
| CO[C@@H]1[C@@H](n2cc(-c3cc(F)c(F)c(F)c3)nn2)[C@@H](O)[C@@H](CO)O[C@@H]1CC1=NO[C@]2(CC[C@@H](C)CC2)C1 [Example 1.34, (2R,3R,4S,5R,6R)-2-(hydroxymethyl)-5-methoxy-6-(((5s,8S)-8-methyl-1-oxa-2-azaspiro[4.5]dec-2-en-3-yl)methyl)-4-(4-(3,4,5-trifluorophenyl)-1H-1,2,3-triazol-1-yl)tetrahydro-2H-pyran-3-ol] | 2500 nM | 520 nM |

Other lines, results leading:

| IC50 (human Gal-1 (hGal-1)) | IC50 (human Gal-3 (hGal-3)) | Compound |
| --- | --- | --- |
| 1300 nM | 81 nM | CO[C@@H]1[C@@H](n2cc(-c3ccc(C)c(F)c3F)nn2)[C@@H](O)[C@@H](CO)O[C@@H]1CN1C=NC2(CCCCC2)C1 [Example 4.04, (2R,3R,4S,5R,6R)-6-((1,3-diazaspiro[4.5]dec-1-en-3-yl)methyl)-4-(4-(2,3-difluoro-4-methylphenyl)-1H-1,2,3-triazol-1-yl)-2-(hydroxymethyl)-5-methoxytetrahydro-2H-pyran-3-ol] |
| 1600 nM | 590 nM | CO[C@@H]1[C@@H](n2cc(-c3cc(F)c(F)c(F)c3)nn2)[C@@H](O)[C@@H](CO)O[C@@H]1CC1=NO[C@]2(CC[C@@H](NC3CC3)CC2)C1 [Example 2.23, (2R,3R,4S,5R,6R)-6-(((5s,8S)-8-(cyclopropylamino)-1-oxa-2-azaspiro[4.5]dec-2-en-3-yl)methyl)-2-(hydroxymethyl)-5-methoxy-4-(4-(3,4,5-trifluorophenyl)-1H-1,2,3-triazol-1-yl)tetrahydro-2H-pyran-3-ol] |
| 2200 nM | 250 nM | CO[C@@H]1[C@@H](n2cc(-c3cc(F)c(F)c(F)c3)nn2)[C@@H](O)[C@@H](CO)O[C@@H]1CC1=NOC2(CCC(O)CC2)C1 (stereo partly drawn) [Example 2.01, 3-(((2R,3R,4S,5R,6R)-5-hydroxy-6-(hydroxymethyl)-3-methoxy-4-(4-(3,4,5-trifluorophenyl)-1H-1,2,3-triazol-1-yl)tetrahydro-2H-pyran-2-yl)methyl)-1-oxa-2-azaspiro[4.5]dec-2-en-8-ol] |
| 340 nM | 71 nM | CO[C@@H]1[C@@H](n2cc(-c3ccc(C)c(F)c3F)nn2)[C@@H](O)[C@@H](CO)O[C@@H]1CC1=NO[C@]2(CC[C@H](NC(C)=O)CC2)C1 [Example 2.06] |
| 4800 nM | 380 nM | CO[C@@H]1[C@@H](n2cc(-c3cc(F)c(F)c(F)c3)nn2)[C@@H](O)[C@@H](CO)O[C@@H]1CC1=NOC2(CCN(C)CC2)C1 [Example 2.29, (2R,3R,4S,5R,6R)-2-(hydroxymethyl)-5-methoxy-6-((8-methyl-1-oxa-2,8-diazaspiro[4.5]dec-2-en-3-yl)methyl)-4-(4-(3,4,5-trifluorophenyl)-1H-1,2,3-triazol-1-yl)tetrahydro-2H-pyran-3-ol] |
| 810 nM | 61 nM | CO[C@@H]1[C@@H](n2cc(-c3cc(F)c(F)c(F)c3)nn2)[C@@H](O)[C@@H](CO)O[C@@H]1CC1=NO[C@]2(CC[C@H](NC(C)=O)CC2)C1 [Example 2.04, N-((5r,8R)-3-(((2R,3R,4S,5R,6R)-5-hydroxy-6-(hydroxymethyl)-3-methoxy-4-(4-(3,4,5-trifluorophenyl)-1H-1,2,3-triazol-1-yl)tetrahydro-2H-pyran-2-yl)methyl)-1-oxa-2-azaspiro[4.5]dec-2-en-8-yl)acetamide] |
| 5100 nM | 700 nM | CO[C@@H]1[C@@H](n2cc(-c3cc(F)c(F)c(F)c3)nn2)[C@@H](O)[C@@H](CO)O[C@@H]1CC1=NO[C@]2(CC[C@@H](O)CC2)C1 [Example 2.02, (5s,8S)-3-(((2R,3R,4S,5R,6R)-5-hydroxy-6-(hydroxymethyl)-3-methoxy-4-(4-(3,4,5-trifluorophenyl)-1H-1,2,3-triazol-1-yl)tetrahydro-2H-pyran-2-yl)methyl)-1-oxa-2-azaspiro[4.5]dec-2-en-8-ol] |
| 2400 nM | 220 nM | CO[C@@H]1[C@@H](n2cc(-c3cc(F)c(F)c(F)c3)nn2)[C@@H](O)[C@@H](CO)O[C@@H]1CC1=NO[C@]2(CC[C@H](NC(C)C)CC2)C1 [Example 2.12, (2R,3R,4S,5R,6R)-2-(hydroxymethyl)-6-(((5r,8R)-8-(isopropylamino)-1-oxa-2-azaspiro[4.5]dec-2-en-3-yl)methyl)-5-methoxy-4-(4-(3,4,5-trifluorophenyl)-1H-1,2,3-triazol-1-yl)tetrahydro-2H-pyran-3-ol] |
| 340 nM | 19 nM | CCOC(=O)N[C@H]1CC[C@]2(CC1)CC(C[C@H]1O[C@H](CO)[C@H](O)[C@H](n3cc(-c4ccc(Cl)c(F)c4F)nn3)[C@H]1OC)=NO2 [Example 2.11, ethyl ((5r,8R)-3-(((2R,3R,4S,5R,6R)-4-(4-(4-chloro-2,3-difluorophenyl)-1H-1,2,3-triazol-1-yl)-5-hydroxy-6-(hydroxymethyl)-3-methoxytetrahydro-2H-pyran-2-yl)methyl)-1-oxa-2-azaspiro[4.5]dec-2-en-8-yl)carbamate] |
